Reference: patent US20100261246A1, “METHOD FOR INHIBITING TELOMERASE REACTION” (PANASONIC CORPORATION, priority 2009, published 2010)

Columns and labels:
telomerase [1] = assay: Telomerase activity measurement with S7700 kit, telomerase reaction and PCR carried out sequentially in one mix, ladder peaks by Bioanalyzer 2100; format: biochemical; details: 1.1 μM of TMPyP added
Protocol: In this experiment, comparative studies of effects of inhibiting telomerase by an anionic phthalocyanine and cationic porphyrin (TMPyP) that is a conventionally known typical material having an effect of inhibiting telomerase were carried out using a kit for telomerase activity measurement manufactured by Millipore Corporation (TRAPEZE Telomeraze Detection Kit S7700).
TRAPEZE Telomeraze Detection Kit S7700 (hereinafter, merely referred to as S7700 kit) is a kit that includes 10× TRAP Reaction buffer, 50× dNTPs Mix, TS primer, Primer Mix, and a control cell pellet.
The TS primer is an oligo DNA consisting of 5′-[sequence]-3′, and serves as an initiation sequence of the telomerase reaction upon binding of telomerase, similarly to a human telomeric DNA sequence.
Therefore, the Primer Mix in the S7700 kit includes RP primer. This primer is an oligo DNA having a sequence complementary to the sequence elongated by the telomerase reaction, and thus, the telomerase reaction product can be amplified to a detectable level on electrophoresis by carrying out PCR using the aforementioned TS primer and the RP primer.
As described above, the telomerase reaction and PCR are carried out sequentially in the telomerase activity measurement using the S7700 kit. […]

TITANIUM Taq polymerase = assay: PCR control (36-bp PCR amplification product) in S7700 kit one-mix reaction, Bioanalyzer 2100; format: biochemical; details: TMPyP concentration not less than 3 μM
Protocol: Therefore, TITANIUM […] polymerase (manufactured by Clontech Laboratories) was used in the present studies.
For example, it is highly probable that materials which nonspecifically bind to double-stranded DNAs inhibit PCR.
The S7700 kit includes a set of a template DNA and a primer for such ascertainment in the Primer Mix, and a 36-bp PCR amplification product is obtained from the set when the PCR is carried out.
Therefore, when the effect of a material expected to inhibit the telomerase reaction is verified using the S7700 kit, it is necessary to confirm that the telomerase reaction product is not detected in final results of electrophoresis, and that the 36-bp PCR product is normally amplified.
First, in accordance with the protocol of the kit, a telomerase solution was prepared from the attached control cell pellet. Next, a reaction solution in a total volume of 20 μL was prepared by mixing 2 μL of 10× TRAP Reaction buffer, 0.4 μL of 50× dNTP Mix, 0.4 μL of TS primer, 0.4 μL of Primer Mix, 0.4 μL of TITANIUM Taq polymerase, 14.8 μL of milliQ water (purified water), and 1.6 μL of the telomerase solution prepared as described above.
Subsequently, the telomerase reaction was allowed by standing this reaction solution under a condition of 30° C. for 30 min. Thereafter, PCR was carried out by repeating 33 times a thermo cycle of: 30 sec at 94° C.; 30 sec at 59° C.; and 1 min at 72° C. […]

telomerase [2] = assay: Telomerase reaction carried out first, then PCR of the diluted reaction solution, gel electrophoresis, with or without λDNA; format: biochemical; details: final concentrations 0.1 to 10 μM
Protocol: (§1) Moreover, effects of inhibiting telomerase by TMPyP and anionic phthalocyanines were compared in Comparative Example 3 and Example 4 to 5 below. In these experiments, the S7700 kit was used similarly to the aforementioned Comparative Examples 1 to 2 and Examples 1 to 3. However, in Comparative Examples 1 to 2 and Examples 1 to 3 described above, the reagents required only for the telomerase reaction and PCR were all mixed first, and the telomerase reaction and PCR were carried out sequentially by regulating the reaction temperature. To the contrary, in the following Comparative Example 3 and Examples 4 to 5, only the reagents required for the telomerase reaction were first mixed to carry out a telomerase reaction, and a part of the reaction solution and the reagents required for the PCR were mixed to carry out the PCR.
In addition, in each of the following Comparative Example 3 and Examples 4 to 5, experiments were carried out with or without addition of a λDNA in the telomerase reaction. Addition of the λDNA was intended to reproduce for mimicking the conditions in which a large amount of double-stranded DNAs are present as in the case of genomic DNAs in cells, and to study the effects of inhibiting telomerase by TMPyP or anionic phthalocyanines even under conditions more approximate to those in vivo, by adding a λDNA.
Telomerase reaction solution in a total volume of 10 μL were prepared by mixing 1 μL of 10× TRAP Reaction buffer, 0.2 μL of 50× dNTP Mix, 0.2 μL of TS primer, 4 μL of the telomerase solution prepared in Comparative Example 1, 2 μL of the TMPyP aqueous solution, and 2.6 μL of milliQ water (the reaction solutions having final TMPyP concentrations of 0 M, 0.1 μM, 0.3 μM, 1 μM, 3 μM and 10 μM were prepared, respectively). Then, the reaction solutions were stood under a condition of 30° C. for 60 min to allow a telomerase reaction to be carried out.
(§2) Next, 4 μL of a solution prepared by diluting the solution after the telomerase reaction 20 times with milliQ water, 0.2 μL of 50× dNTP Mix, 0.2 μL of TS primer, 0.2 μL of Primer Mix, 0.1 μL of TaKaLa LA Taq Hot Start Version (manufactured by Takara Bio Inc.), 1 μL of 10× LA PCR buffer II (Mg^2+ plus) (buffer solution included in TaKaLa LA Taq Hot Start Version), and 4.3 μL of milliQ water were mixed to prepare a PCR solution in a total volume of 10 μL. Then, PCR was carried out by allowing this PCR solution to stand under temperature conditions in which a thermo cycle of: 30 sec at 95° C.; 30 sec at 59° C.; and 30 sec at 72° C. was repeated 30 times.
(§3) Finally, the solution after the PCR was electrophoresed on a 10% polyacrylamide gel, and stained with GelStar Nucleic Acid Stain (manufactured by Takara Bio Inc.). […] In the order from the leftmost lane, the results with final concentrations of TMPyP being 0 M, 0.1 μM, 0.3 μM, 1 μM, 3 μM and 10 μM are shown.
On the other hand, experiments in which a λDNA was added to the telomerase reaction solution were also carried out. More specifically, in preparing the telomerase reaction solution described above, 2.6 μL of a λDNA solution (manufactured by Takara Bio Inc.) was mixed in place of mixing 2.6 μL of milliQ water. Other telomerase reaction temperature/time schedule, PCR solution preparation condition, PCR temperature/time schedule, electrophoresis condition were just the same.

[3] = tested on: TaKaLa LA Taq Hot Start Version (polymerase reaction); assay: PCR control band in the separate telomerase reaction / PCR experiment; format: biochemical; details: 10 μM, no addition of λDNA
Protocol: as §1, §2, §3

[4] = tested on: G-quadruplex structure (human telomeric oligo DNA); assay: Absorbance 480 to 800 nm of phthalocyanine mixed with G-quadruplex solutions; format: binding; details: for interaction with the G-quadruplex structure (absorption peak): 15 μM compound solution, 50 mM HEPES, 100 mM NaCl, pH7
Protocol: Hereinafter, the interaction between anionic phthalocyanines and various DNAs was studied in Examples 6, 7, 8 and 9. For this purpose, a solution containing a G-quadruplex structure, a solution including a single-stranded DNA, and a solution containing a double-stranded DNA were first prepared according to the following procedures.
A solution of 50 mM HEPES and 100 mM NaCl, pH7 (total volume: 100 μL) containing a single-stranded DNA consisting of a sequence of 5′-[…]-3′ (SEQ ID NO: 2; this sequence being similar to a sequence of a human telomere portion, and thus the DNA referred to as “human telomeric oligo DNA” hereafter) was incubated at 90° C. for 5 min, and thereafter cooled to 0° C. at a rate of temperature fall of 2° C./min, followed by finally incubating at 0° C. for 2 hrs.
The concentrations of the human telomeric oligo DNA contained in the solution were 0, 0.5, 2, 5, 10, 25, 50 and 100 μM.
The absolute values of the positive and negative peaks were maximized for the solution having the human telomeric oligo DNA concentration of 100 μM, and dropped in the order of 50, 25, 10, 5, 2 and 0.5 μM. […] Hereafter, G-quadruplex solutions prepared from the solutions having human telomeric oligo DNA concentrations of 100, 50, 25, 10, 5, 2 and 0.5 μM are referred to as G-quadruplex solutions A, B, C, D, E, F and G, respectively. On the other hand, the solution without the human telomeric oligo DNA contained therein is referred to as NC solution.
First, a solution of 50 mM HEPES and 100 mM NaCl, pH7 (total volume: 20 μL) containing 15 μM CuPC was prepared. Then, this CuPC solution was mixed with each of the G-quadruplex solutions C, D, E and F and the NC solution, and the absorbance of these liquid mixtures were measured at 480 to 800 nm.
First, a solution of 50 mM HEPES and 100 mM NaCl, pH7 (total volume: 20 μL) containing 15 μM NiPC was prepared. Then, this NiPC solution was mixed with each of the G-quadruplex solutions D, E, F and G, and the NC solution, and the absorbance of these liquid mixtures were measured at 480 to 800 nm.
First, a solution of 50 mM HEPES and 100 mM NaCl, pH7 (total volume: 20 μL) containing 15 μM PC was prepared. Then, this PC solution was mixed with each of the G-quadruplex solutions D, E, F and G, and the NC solution, and the absorbance of these liquid mixtures were measured at 480 to 800 nm.
First, a solution of 50 mM HEPES and 100 mM NaCl, pH7 (total volume: 20 μL) containing 15 μM CoPC was prepared. Then, this CoPC solution was mixed with each of the G-quadruplex solutions B, C, D and G, and the NC solution, and the absorbance of these liquid mixtures were measured at 480 to 800 nm.

single-stranded DNA = assay: Absorbance 480 to 800 nm of phthalocyanine mixed with single-stranded DNA solution; format: binding; details: 15 μM compound solution, DNA 50 μM, pH7
Protocol: A solution of 50 mM HEPES and 100 mM NaCl, pH7 (total volume: 100 μL) containing a single-stranded DNA consisting of a sequence of 5′-[…]-3′ sequence (SEQ ID NO: 3) at a concentration of 50 μM was prepared, which was incubated at 90° C. for 5 min, and thereafter cooled to 0° C. at a rate of temperature fall of 2° C./min, followed by finally incubating at 0° C. for 2 hrs. The DNA in thus resulting solution was a single-stranded DNA even after the incubation (hereafter, the solution referred to as “single-stranded DNA solution”).
(§4) Next, the aforementioned CuPC solution and single-stranded DNA solution, and the aforementioned CuPC solution and double-stranded DNA solution were similarly mixed, respectively. And then the absorbance of these liquid mixtures was measured at 480 to 800 nm. FIG. 9(A) and FIG. 9(B) show the results of the measurement in the cases of the single-stranded DNA solution and the double-stranded DNA solution, respectively.
as §4, with “NiPC” for “CuPC”, “respectively;” for “respectively. And then”, “11(A)” for “9(A)”, “11(B)” for “9(B)”, “respectively. In each drawing, the result obtained when the NC solution was used is also shown together.” for “respectively.”
as §4, with “PC” for “CuPC”, “respectively;” for “respectively. And then”, “mixture” for “mixtures”, “13(A)” for “9(A)”, “13(B)” for “9(B)”, “respectively. In each drawing, the result obtained when the NC solution was used is also shown together.” for “respectively.”
as §4, with “CoPC” for “CuPC”, “respectively, and” for “respectively. And”, “15(A)” for “9(A)”, “15(B)” for “9(B)”, “respectively. In each drawing, the result obtained when the NC solution was used is also shown together.” for “respectively.”

double-stranded DNA = assay: Absorbance 480 to 800 nm of phthalocyanine mixed with double-stranded DNA solution; format: binding; details: 15 μM compound solution, DNA 50 μM, pH7
Protocol: A solution of 50 mM HEPES and 100 mM NaCl, pH7 (total volume: 100 μL) containing a single-stranded DNA consisting of a sequence of 5′-AGAAGAGAAAGA-3′ (SEQ ID NO: 4) and a single-stranded DNA consisting of a sequence of 5′-TCTTTCTCTTCT-3′ (SEQ ID NO: 5) at each concentration of 50 μM was prepared, which was incubated at 90° C. for 5 min, and thereafter cooled to 0° C. at a rate of temperature fall of 2° C./min, followed by finally incubating at 0° C. for 2 hrs. Since the aforementioned two kinds of DNAs are complementary to one another, both DNAs form a double-stranded DNA in the solution as a result of the incubation (hereafter, the solution referred to as “double-stranded DNA solution”).
as §4
as §4, with “NiPC” for “CuPC”, “respectively;” for “respectively. And then”, “11(A)” for “9(A)”, “11(B)” for “9(B)”, “respectively. In each drawing, the result obtained when the NC solution was used is also shown together.” for “respectively.”
as §4, with “PC” for “CuPC”, “respectively;” for “respectively. And then”, “mixture” for “mixtures”, “13(A)” for “9(A)”, “13(B)” for “9(B)”, “respectively. In each drawing, the result obtained when the NC solution was used is also shown together.” for “respectively.”
as §4, with “CoPC” for “CuPC”, “respectively, and” for “respectively. And”, “15(A)” for “9(A)”, “15(B)” for “9(B)”, “respectively. In each drawing, the result obtained when the NC solution was used is also shown together.” for “respectively.”

Compound	total DNA concentration corresponding to the ladder peaks in the reaction product (telomerase [1]) [ng/µL]	DNA concentration corresponding to the PCR control peak (TITANIUM Taq polymerase)	inhibition of the telomerase reaction (band of telomerase reaction product) (telomerase [2]; in the presence of λDNA)	inhibition of the telomerase reaction (band of telomerase reaction product) (telomerase [2]; no addition of λDNA)	amplification of the PCR control (band) [3]	interaction with the G-quadruplex structure (absorption peak) [4]	elevation of the peaks in the range of 640 to 720 nm with G-quadruplex ([4]; compared with CuPC, NiPC or PC)	interaction with the single-stranded DNA (absorption spectrum vs NC solution) (single-stranded DNA)	interaction with the double-stranded DNA (absorption spectrum vs NC solution) (double-stranded DNA)
C[n+]1ccc(-c2c3nc(c(-c4cc[n+](C)cc4)c4ccc([nH]4)c(-c4cc[n+](C)cc4)c4nc(c(-c5cc[n+](C)cc5)c5ccc2[nH]5)C=C4)C=C3)cc1 [TMPyP, reference compound]	2.7	not beyond the detection limit	not inhibited at all	inhibited the telomerase reaction	became weaker	–	–	–	–
Cobalt(II) phthalocyanine tetracarboxylic acid [CoPC]	–	–	–	–	–	an interaction occurred	less than the resultant elevation when CuPC, NiPC or PC was used	an interaction did not occur	an interaction did not occur
Phthalocyanine tetrasulfonic acid [PC]	–	–	–	–	–	an interaction occurred	–	an interaction did not occur	an interaction did not occur
Zinc(II) phthalocyanine tetrasulfonic acid [ZnPC]	–	–	–	–	–	specifically interacted with a G-quadruplex structure	–	–	–
